Assays:
Test in all cases: SelectScreen ZLYTE
Type in all cases: biochemical
AMPK (A2/B1/G2) = AMPK (A2/B1/G2) (Homo sapiens, UniProt P54646); details: ATP Km, read-out: Percentage of inhibition
Outline: (§1)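 Each panel kinase received the compound at a fixed 1 μM; inhibition percentages were recorded, with ≥80% used as the cut-off for hits.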

AMPK (A2/B1/G3) = target: T1, AMPK (A2/B1/G3) (Homo sapiens, UniProt P54646); details: ATP Km, read-out: Percentage of inhibition
T1 construct: purchased Life Technologies (SelectScreen Whole Panel service)
Outline: as §1

BRAF = target: T2, BRAF (Homo sapiens, UniProt P15056); details: ATP 100 µM, read-out: Percentage of inhibition
T2 construct: purchased Life Technologies (SelectScreen Whole Panel)
Outline: as §1

CAMK2A (CaMKII alpha) = CAMK2A (CaMKII alpha) (Homo sapiens, UniProt Q9UQM7); details: ATP Km, read-out: Percentage of inhibition
Outline: as §1

CDC42 BPG (MRCKG) = target: T3, CDC42 BPG (MRCKG) (Homo sapiens, UniProt Q6DT37); details: ATP Km, read-out: Percentage of inhibition
T3 construct: purchased Life Technologies (SelectScreen Whole Panel service)
Outline: as §1

CDK17/cyclin Y = CDK17/cyclin Y (Homo sapiens, UniProt Q00537); details: ATP Km, read-out: Percentage of inhibition
Outline: as §1

CDK5/p35 = target: T4, CDK5/p35 (Homo sapiens, UniProt Q00535); details: ATP Km, read-out: Percentage of inhibition
T4 construct: purchased Life Technologies
Outline: as §1

CDKL5 = target: T5, CDKL5 (Homo sapiens, UniProt O76039); details: ATP Km, read-out: Percentage of inhibition
T5 construct: purchased Life Technologies
Outline: as §1

CLK3 = CLK3 (Homo sapiens, UniProt P49761); details: ATP Km, read-out: Percentage of inhibition
Outline: as §1

CSNK1A1 (CK1 alpha 1) = target: T6, CSNK1A1 (CK1 alpha 1) (Homo sapiens, UniProt P48729); details: ATP Km, read-out: Percentage of inhibition
T6 construct: purchased Life Technologies (SelectScreen Whole Panel)
Outline: as §1

CSNK1D (CK1 delta) = target: T7, CSNK1D (CK1 delta) (Homo sapiens, UniProt P48730); details: ATP Km, read-out: Percentage of inhibition
T7 construct: purchased Life Technologies (SelectScreen service)
Outline: as §1

DYRK1B = target: T8, DYRK1B (Homo sapiens, UniProt Q9Y463); details: ATP Km, read-out: Percentage of inhibition
T8 construct: purchased Life Technologies
Outline: as §1

EGFR (ErbB1) L858R = target: T9, EGFR (ErbB1) L858R (Homo sapiens, UniProt P00533, L858R); details: ATP Km, read-out: Percentage of inhibition
T9 construct: purchased Life Technologies (SelectScreen Whole Panel)
Outline: as §1

FGFR1 = target: T10, FGFR1 (Homo sapiens, UniProt P11362); details: ATP Km, read-out: Percentage of inhibition
T10 construct: purchased Life Technologies
Outline: as §1

GRK4 = target: T11, GRK4 (Homo sapiens, UniProt P32298); details: ATP Km, read-out: Percentage of inhibition
T11 construct: purchased Life Technologies
Outline: as §1

HIPK3 (YAK1) = target: T12, HIPK3 (YAK1) (Homo sapiens, UniProt Q9H422); details: ATP Km, read-out: Percentage of inhibition
T12 construct: purchased Life Technologies
Outline: as §1

KDR (VEGFR2) = KDR (VEGFR2) (Homo sapiens, UniProt P35968); details: ATP Km, read-out: Percentage of inhibition
Outline: as §1

LCK = LCK (Homo sapiens, UniProt P06239); details: ATP Km, read-out: Percentage of inhibition
Outline: as §1

MAP3K9 (MLK1) = MAP3K9 (MLK1) (Homo sapiens, UniProt P80192); details: ATP Km, read-out: Percentage of inhibition
Outline: as §1

MAPK10 (JNK3) = target: T13, MAPK10 (JNK3) (Homo sapiens, UniProt P53779); details: ATP 100 µM, read-out: Percentage of inhibition
T13 construct: purchased Life Technologies
Outline: as §1

MAPK13 (p38 delta) = MAPK13 (p38 delta) (Homo sapiens, UniProt O15264); details: ATP Km, read-out: Percentage of inhibition
Outline: as §1

MARK3 = target: T14, MARK3 (Homo sapiens, UniProt P27448); details: ATP Km, read-out: Percentage of inhibition
T14 construct: purchased Life Technologies
Outline: as §1

MERTK = target: T15, MERTK (Homo sapiens, UniProt Q12866); details: ATP Km, read-out: Percentage of inhibition
T15 construct: purchased Life Technologies (SelectScreen Whole Panel service)
Outline: as §1

MET (cMet) = MET (cMet) (Homo sapiens, UniProt P08581); details: ATP Km, read-out: Percentage of inhibition
Outline: as §1

MUSK = target: T16, MUSK (Homo sapiens, UniProt O15146); details: ATP Km, read-out: Percentage of inhibition
T16 construct: purchased Life Technologies (SelectScreen Whole Panel service)
Outline: as §1

MYLK2 (skMLCK) = MYLK2 (skMLCK) (Homo sapiens, UniProt Q9H1R3); details: ATP Km, read-out: Percentage of inhibition
Outline: as §1

NEK1 = target: T17, NEK1 (Homo sapiens, UniProt Q96PY6); details: ATP Km, read-out: Percentage of inhibition
T17 construct: purchased Life Technologies (SelectScreen Whole Panel service)
Outline: as §1

NEK4 = target: T18, NEK4 (Homo sapiens, UniProt P51957); details: ATP Km, read-out: Percentage of inhibition
T18 construct: purchased Life Technologies
Outline: as §1

NTRK2 (TRKB) = target: T19, NTRK2 (TRKB) (Homo sapiens, UniProt Q16620); details: ATP Km, read-out: Percentage of inhibition
T19 construct: purchased Life Technologies (SelectScreen service)
Outline: as §1

PAK2 (PAK65) = PAK2 (PAK65) (Homo sapiens, UniProt Q13177); details: ATP Km, read-out: Percentage of inhibition
Outline: as §1

PASK = target: T20, PASK (Homo sapiens, UniProt Q96RG2); details: ATP Km, read-out: Percentage of inhibition
T20 construct: purchased Life Technologies (SelectScreen Whole Panel)
Outline: as §1

PRKG2 (PKG2) = target: T21, PRKG2 (PKG2) (Homo sapiens, UniProt Q13237); details: ATP Km, read-out: Percentage of inhibition
T21 construct: purchased Life Technologies
Outline: as §1

RPS6KA1 (RSK1) = target: T22, RPS6KA1 (RSK1) (Homo sapiens, UniProt Q15418); details: ATP Km, read-out: Percentage of inhibition
T22 construct: purchased Life Technologies (SelectScreen service)
Outline: as §1

SGK (SGK1) = target: T23, SGK (SGK1) (Homo sapiens, UniProt O00141); details: ATP Km, read-out: Percentage of inhibition
T23 construct: purchased Life Technologies
Outline: as §1

SRPK1 = SRPK1 (Homo sapiens, UniProt Q96SB4); details: ATP Km, read-out: Percentage of inhibition
Outline: as §1

SRPK2 = SRPK2 (Homo sapiens, UniProt P78362); details: ATP Km, read-out: Percentage of inhibition
Outline: as §1

STK4 (MST1) = target: T24, STK4 (MST1) (Homo sapiens, UniProt Q13043); details: ATP Km, read-out: Percentage of inhibition
T24 construct: purchased Life Technologies (SelectScreen Whole Panel)
Outline: as §1

TAOK2 (TAO1) = target: T25, TAOK2 (TAO1) (Homo sapiens, UniProt Q9UL54); details: ATP Km, read-out: Percentage of inhibition
T25 construct: purchased Life Technologies
Outline: as §1

ZAP70 = target: T26, ZAP70 (Homo sapiens, UniProt P43403); details: ATP Km, read-out: Percentage of inhibition
T26 construct: purchased Life Technologies (SelectScreen Whole Panel)
Outline: as §1

T18 sequence (P51957 whole entry): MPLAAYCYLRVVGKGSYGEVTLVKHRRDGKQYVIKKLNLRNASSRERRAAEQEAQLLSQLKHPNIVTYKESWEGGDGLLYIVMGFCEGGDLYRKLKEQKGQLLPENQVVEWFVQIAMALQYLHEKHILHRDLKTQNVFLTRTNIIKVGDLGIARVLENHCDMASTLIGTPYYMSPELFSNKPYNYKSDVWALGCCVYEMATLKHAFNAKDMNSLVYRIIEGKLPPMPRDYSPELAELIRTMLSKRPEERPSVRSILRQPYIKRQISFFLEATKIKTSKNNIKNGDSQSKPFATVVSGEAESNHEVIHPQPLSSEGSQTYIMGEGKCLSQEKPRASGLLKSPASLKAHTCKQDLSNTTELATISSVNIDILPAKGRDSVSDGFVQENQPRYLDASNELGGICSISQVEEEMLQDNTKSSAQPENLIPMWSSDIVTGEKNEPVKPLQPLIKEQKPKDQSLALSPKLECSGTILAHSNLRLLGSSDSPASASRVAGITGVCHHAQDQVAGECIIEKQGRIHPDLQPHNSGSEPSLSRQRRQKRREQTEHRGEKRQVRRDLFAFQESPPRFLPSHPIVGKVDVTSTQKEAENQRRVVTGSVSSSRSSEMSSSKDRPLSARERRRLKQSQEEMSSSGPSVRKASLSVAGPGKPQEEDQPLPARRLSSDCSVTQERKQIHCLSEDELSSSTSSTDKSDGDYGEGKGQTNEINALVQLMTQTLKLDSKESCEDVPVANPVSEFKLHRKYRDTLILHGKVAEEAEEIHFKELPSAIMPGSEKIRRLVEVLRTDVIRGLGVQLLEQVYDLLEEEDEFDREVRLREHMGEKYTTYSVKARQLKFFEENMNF
T22 sequence (Q15418 whole entry): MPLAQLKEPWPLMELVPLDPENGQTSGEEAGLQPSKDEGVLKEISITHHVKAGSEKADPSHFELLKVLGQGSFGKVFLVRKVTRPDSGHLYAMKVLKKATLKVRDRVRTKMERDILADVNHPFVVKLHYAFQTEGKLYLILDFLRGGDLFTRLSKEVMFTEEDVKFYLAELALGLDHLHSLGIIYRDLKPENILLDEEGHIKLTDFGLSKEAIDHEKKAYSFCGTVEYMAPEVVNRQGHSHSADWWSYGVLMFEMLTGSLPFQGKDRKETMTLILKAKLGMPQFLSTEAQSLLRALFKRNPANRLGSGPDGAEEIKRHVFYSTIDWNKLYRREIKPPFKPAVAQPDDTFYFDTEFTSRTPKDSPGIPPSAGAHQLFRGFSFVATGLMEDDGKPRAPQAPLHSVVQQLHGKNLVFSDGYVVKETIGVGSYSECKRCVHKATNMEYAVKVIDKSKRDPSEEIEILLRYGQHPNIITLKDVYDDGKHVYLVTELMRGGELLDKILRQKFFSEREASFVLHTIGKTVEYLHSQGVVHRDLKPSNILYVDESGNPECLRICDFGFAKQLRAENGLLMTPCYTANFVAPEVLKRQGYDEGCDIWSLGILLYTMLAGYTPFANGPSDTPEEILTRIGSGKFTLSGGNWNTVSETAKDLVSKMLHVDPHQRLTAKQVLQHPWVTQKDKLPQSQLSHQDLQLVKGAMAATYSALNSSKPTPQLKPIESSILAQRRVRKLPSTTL
T20 sequence (Q96RG2 whole entry): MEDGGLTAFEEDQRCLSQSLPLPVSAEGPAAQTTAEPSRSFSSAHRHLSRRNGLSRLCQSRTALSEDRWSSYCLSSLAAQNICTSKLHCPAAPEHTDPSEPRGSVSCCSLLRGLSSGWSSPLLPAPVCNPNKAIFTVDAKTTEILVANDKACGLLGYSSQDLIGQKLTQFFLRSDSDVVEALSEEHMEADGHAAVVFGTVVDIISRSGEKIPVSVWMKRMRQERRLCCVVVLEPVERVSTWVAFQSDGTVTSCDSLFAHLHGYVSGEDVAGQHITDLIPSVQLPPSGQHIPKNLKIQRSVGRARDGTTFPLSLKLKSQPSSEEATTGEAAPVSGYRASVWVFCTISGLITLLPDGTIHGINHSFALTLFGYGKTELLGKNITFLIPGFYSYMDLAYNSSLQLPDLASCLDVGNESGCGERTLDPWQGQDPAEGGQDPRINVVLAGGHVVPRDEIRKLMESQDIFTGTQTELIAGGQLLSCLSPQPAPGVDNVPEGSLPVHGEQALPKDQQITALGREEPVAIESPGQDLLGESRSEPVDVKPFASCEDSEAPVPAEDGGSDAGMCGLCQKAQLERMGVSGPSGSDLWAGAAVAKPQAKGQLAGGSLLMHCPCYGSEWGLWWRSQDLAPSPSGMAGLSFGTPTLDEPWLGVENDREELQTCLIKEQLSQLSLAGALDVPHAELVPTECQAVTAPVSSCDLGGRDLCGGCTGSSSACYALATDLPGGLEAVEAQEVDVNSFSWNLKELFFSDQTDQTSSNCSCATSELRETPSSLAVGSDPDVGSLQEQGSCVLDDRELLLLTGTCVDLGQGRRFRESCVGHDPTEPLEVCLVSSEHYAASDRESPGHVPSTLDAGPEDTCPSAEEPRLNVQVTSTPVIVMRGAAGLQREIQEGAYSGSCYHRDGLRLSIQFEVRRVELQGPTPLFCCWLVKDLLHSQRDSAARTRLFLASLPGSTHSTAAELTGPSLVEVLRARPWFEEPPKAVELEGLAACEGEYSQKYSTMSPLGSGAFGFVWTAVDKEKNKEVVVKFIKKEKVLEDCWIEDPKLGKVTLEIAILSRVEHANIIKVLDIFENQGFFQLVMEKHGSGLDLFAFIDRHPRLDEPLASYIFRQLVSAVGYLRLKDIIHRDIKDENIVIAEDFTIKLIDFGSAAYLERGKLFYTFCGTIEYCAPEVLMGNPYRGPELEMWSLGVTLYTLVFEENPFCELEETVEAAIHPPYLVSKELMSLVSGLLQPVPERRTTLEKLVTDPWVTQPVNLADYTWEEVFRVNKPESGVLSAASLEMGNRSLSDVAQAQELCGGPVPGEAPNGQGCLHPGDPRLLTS
T26 sequence (P43403 whole entry): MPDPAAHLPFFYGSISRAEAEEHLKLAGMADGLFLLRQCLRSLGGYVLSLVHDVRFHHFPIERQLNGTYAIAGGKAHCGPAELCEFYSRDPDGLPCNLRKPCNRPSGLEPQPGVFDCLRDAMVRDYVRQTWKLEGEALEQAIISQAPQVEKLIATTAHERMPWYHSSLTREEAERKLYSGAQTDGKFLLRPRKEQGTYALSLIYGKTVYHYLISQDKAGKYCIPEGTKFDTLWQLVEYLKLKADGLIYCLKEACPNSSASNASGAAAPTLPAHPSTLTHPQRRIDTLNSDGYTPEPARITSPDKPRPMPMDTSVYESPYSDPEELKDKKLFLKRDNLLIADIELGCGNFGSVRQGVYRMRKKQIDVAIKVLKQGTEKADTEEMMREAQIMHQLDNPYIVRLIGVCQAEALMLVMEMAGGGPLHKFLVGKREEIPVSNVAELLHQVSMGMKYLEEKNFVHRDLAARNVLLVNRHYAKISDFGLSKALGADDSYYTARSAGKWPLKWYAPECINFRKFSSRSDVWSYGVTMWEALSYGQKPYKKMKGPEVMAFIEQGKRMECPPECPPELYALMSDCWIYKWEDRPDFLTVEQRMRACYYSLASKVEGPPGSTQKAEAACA
T11 sequence (P32298 whole entry): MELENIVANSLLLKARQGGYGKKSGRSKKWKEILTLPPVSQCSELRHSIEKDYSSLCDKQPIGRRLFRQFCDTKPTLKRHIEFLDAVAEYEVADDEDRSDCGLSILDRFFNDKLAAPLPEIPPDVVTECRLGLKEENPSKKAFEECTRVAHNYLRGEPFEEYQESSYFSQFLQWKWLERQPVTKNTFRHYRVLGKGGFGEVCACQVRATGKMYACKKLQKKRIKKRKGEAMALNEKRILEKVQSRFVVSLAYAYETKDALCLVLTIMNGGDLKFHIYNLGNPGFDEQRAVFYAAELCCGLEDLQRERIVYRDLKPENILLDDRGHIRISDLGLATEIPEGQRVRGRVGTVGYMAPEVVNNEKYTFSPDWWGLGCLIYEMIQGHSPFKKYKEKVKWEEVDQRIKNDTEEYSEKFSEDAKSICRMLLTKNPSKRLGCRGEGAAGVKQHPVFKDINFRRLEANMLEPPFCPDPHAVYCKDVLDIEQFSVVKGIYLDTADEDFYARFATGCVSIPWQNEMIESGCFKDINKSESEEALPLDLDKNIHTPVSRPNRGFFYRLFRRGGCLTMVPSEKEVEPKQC
T13 sequence (P53779 whole entry): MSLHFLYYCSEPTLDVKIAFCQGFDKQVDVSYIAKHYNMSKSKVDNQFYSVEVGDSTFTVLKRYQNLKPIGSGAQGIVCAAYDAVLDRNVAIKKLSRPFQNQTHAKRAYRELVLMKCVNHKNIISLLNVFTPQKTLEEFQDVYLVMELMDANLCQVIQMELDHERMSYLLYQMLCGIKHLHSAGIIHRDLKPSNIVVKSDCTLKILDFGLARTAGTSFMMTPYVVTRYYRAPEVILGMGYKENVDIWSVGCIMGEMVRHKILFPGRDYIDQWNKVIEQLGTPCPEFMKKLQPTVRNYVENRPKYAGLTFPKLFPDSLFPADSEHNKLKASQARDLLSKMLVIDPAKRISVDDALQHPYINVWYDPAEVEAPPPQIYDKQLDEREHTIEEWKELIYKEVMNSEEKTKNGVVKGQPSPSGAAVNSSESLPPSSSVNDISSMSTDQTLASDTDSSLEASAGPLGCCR
CLK3, sequence (P49761 whole entry): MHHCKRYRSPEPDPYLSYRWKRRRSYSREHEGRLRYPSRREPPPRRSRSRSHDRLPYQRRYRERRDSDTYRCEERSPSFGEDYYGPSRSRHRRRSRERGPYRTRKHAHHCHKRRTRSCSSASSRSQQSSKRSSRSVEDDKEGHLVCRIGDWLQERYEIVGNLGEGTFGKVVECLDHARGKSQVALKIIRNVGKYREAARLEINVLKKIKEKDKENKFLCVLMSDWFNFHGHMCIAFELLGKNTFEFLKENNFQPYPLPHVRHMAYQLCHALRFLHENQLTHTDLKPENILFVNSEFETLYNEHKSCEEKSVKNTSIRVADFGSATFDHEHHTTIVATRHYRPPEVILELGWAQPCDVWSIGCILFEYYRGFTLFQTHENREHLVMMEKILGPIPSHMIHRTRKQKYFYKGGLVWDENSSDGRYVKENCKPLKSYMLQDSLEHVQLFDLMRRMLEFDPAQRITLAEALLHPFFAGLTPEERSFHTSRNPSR

COc1ccc2[nH]c3c(=O)[nH]c4ccc(O)cc4c3c2c1 [Compound 55, 2-Hydroxy-10-methoxy-5,7-dihydro-6H-indolo[2,3-c]quinolin-6-one]
inhibition at 1 µM (AMPK (A2/B1/G2)): 63%
inhibition at 1 µM (AMPK (A2/B1/G3)): 42%
inhibition at 1 µM (BRAF): 100%
inhibition at 1 µM (CAMK2A (CaMKII alpha)): 20%
inhibition at 1 µM (CDC42 BPG (MRCKG)): 12%
inhibition at 1 µM (CDK17/cyclin Y): 20%
inhibition at 1 µM (CDK5/p35): 32%
inhibition at 1 µM (CDKL5): 5%
inhibition at 1 µM (CLK3): 57%
inhibition at 1 µM (CSNK1A1 (CK1 alpha 1)): 51%
inhibition at 1 µM (CSNK1D (CK1 delta)): 81%
inhibition at 1 µM (DYRK1B): 96%
inhibition at 1 µM (EGFR (ErbB1) L858R): -1%
inhibition at 1 µM (FGFR1): 38%
inhibition at 1 µM (GRK4): 42%
inhibition at 1 µM (HIPK3 (YAK1)): 35%
inhibition at 1 µM (KDR (VEGFR2)): 67%
inhibition at 1 µM (LCK): 67%
inhibition at 1 µM (MAP3K9 (MLK1)): 63%
inhibition at 1 µM (MAPK10 (JNK3)): 15%
inhibition at 1 µM (MAPK13 (p38 delta)): 20%
inhibition at 1 µM (MARK3): 31%
inhibition at 1 µM (MERTK): 44%
inhibition at 1 µM (MET (cMet)): 7%
inhibition at 1 µM (MUSK): 18%
inhibition at 1 µM (MYLK2 (skMLCK)): 61%
inhibition at 1 µM (NEK1): 17%
inhibition at 1 µM (NEK4): 28%
inhibition at 1 µM (NTRK2 (TRKB)): 80%
inhibition at 1 µM (PAK2 (PAK65)): 6%
inhibition at 1 µM (PASK): 49%
inhibition at 1 µM (PRKG2 (PKG2)): 37%
inhibition at 1 µM (RPS6KA1 (RSK1)): 89%
inhibition at 1 µM (SGK (SGK1)): 29%
inhibition at 1 µM (SRPK1): 7%
inhibition at 1 µM (SRPK2): 6%
inhibition at 1 µM (STK4 (MST1)): 99%
inhibition at 1 µM (TAOK2 (TAO1)): 3%
inhibition at 1 µM (ZAP70): 0%
